# Experiments:
# [1] = test system: tubovesicular network of P. falciparum; assay: Tubovesicular network formation, BODIPY-FL-C5-ceramide fluorescence microscopy; format: cell-based, Plasmodium falciparum
# Procedure: Infected erythrocytes treated with or without ceramide analogs were incubated for 30 min, at 37°C, in culture medium containing 10 μM BODIPY-FL-C5-ceramide, washed three times with culture medium without serum and fixed overnight, at 4°C, in 3.7% formaldehyde/0.05% glutaraldehyde. Cells were mounted on poly-L-lysine coated slides and viewed using a Nikon Eclipse TE 300 DV inverted microscope with an 100X oil objective mounted on a piezzo electric device using appropriate fluorescence emission filters. Image acquisition (z-series) was performed with a back illuminated cooled detector (CCD EEV: NTE/CCD-1024-EB, Roper Scientific, France) using a 0.2 μm step. Data acquisition and image deconvolution process were performed with Metamorph software (Universal Imaging Corporation, Roper Scientific, France). The images presented correspond to the maximum intensity projection of the deconvoluted z-series.
# [2] = test system: P. falciparum synchronized cultures; assay: Parasite stage-specific inhibitory effects and reversibility (Giemsa-stained smears); format: cell-based, Plasmodium falciparum; conditions: rings, 24 hours incubation with 5 μM, then drug removal (data not shown)
# [3] = test system: malaria-induced anion channel; assay: Malaria-induced anion channel activity, whole-cell patch-clamp; format: cell-based, Plasmodium falciparum; conditions: infected erythrocytes, 24 hours, 250 nM AD2646 or 10 μM PPMP, whole-cell patch-clamp (unpublished data)
# Description: Sphingolipids preferentially interact with cholesterol in membranes, especially in detergent-resistant microdomains (DRMs or rafts). Rafts have been described in Plasmodium and are involved, at least, in the uptake of erythrocyte raft proteins and maintenance of the parasitophorous vacuole containing the parasite, inside the erythrocyte. This interaction implies : 1) van der Waals interactions between the saturated acyl chain and sphingoid moiety of sphingolipids and the rigid planar tetracyclic rings of cholesterol and 2) hydrogen bonds between the 3-β hydroxyl group of cholesterol and the fatty acyl carbonyl group resulting from the amide linkage with the sphingoid moiety. The amide-linked fatty acid function seems to have a profound stabilizing effect on cholesterol-sphingolipid interactions. It could be hypothesized that in a membrane context, methylene analogs might have a destabilizing effect on the cholesterol-sphingolipid interactions and, in consequence, modifications of membrane properties. Indeed, P. falciparum growth is characterized by a setting up of new permeabilities of the infected-erythrocyte membrane. Although the biochemical nature of these new permeabilities is still unknown, they have been characterized from an electrophysiological point of view and involve a malaria-induced anion channel. […]
# P. falciparum = test system: P. falciparum; set-up: method as in PMID 7568097; conditions: synchronized cultures at the ring stage; read-out: IC50 previously reported; cited from earlier work
# human MRC-5 cells = assay: Cytotoxicity test upon human embryonic cells (MTT); format: cell-based; conditions: Homo sapiens, MRC5, 120 h; MRC-5, five days, MTT; mean of three experiments
# Procedure: (§1) A human diploid embryonic lung cell line (MRC-5, Bio-Whittaker 72211D) was used to assess the cytotoxic effects towards eukaryotic host cells. MRC-5 cells were seeded at 5,000 cells per well in 100 μl. After 24 hours, the cells were washed and two-fold dilutions of the drug were added in 200 μl standard culture medium (RPMI medium + 5% fetal calf serum) and maintained for five days under 5% CO2 atmosphere. The final DMSO concentration in the culture remained below 0.1%. Untreated cultures were included as controls. The cytotoxicity was determined using the colorimetric MTT assay according to the manufacturer's recommendations (Cell proliferation kit I, Roche Applied Science, France) and scored as a percentage of reduction in absorption at 540 nm of treated cultures versus untreated control cultures. […] The results were expressed as the mean ± the standard deviations determined from several independent experiments. The index of selectivity was defined as the ratio of the IC50 value on MRC-5 to that of P. falciparum.
# [4] = Cytotoxicity test upon human embryonic cells (MTT); format: cell-based; conditions: human, MRC-5 human diploid embryonic lung cells; MRC-5, five days, MTT; mean of three experiments
# Procedure: as §1
# [5] = test system: P. falciparum sphingomyelin synthase activity; assay: Sphingomyelin synthase activity assay in trophozoite cultures (NBD-C6-ceramide); format: cell-based, Plasmodium falciparum; conditions: trophozoites 20-30 h, 0-500 μM drug, 10 μM NBD-C6-ceramide, 60 min, 37°C
# Procedure: SPM synthase activity was measured as described by Haldar et al.. Briefly, assays were performed on P. falciparum cultures at the trophozoite stage (20–30 h old parasites). 400 μl of culture (1 × 10^8 parasites) were incubated for 60 min at 37°C with 10 μM NBD-C6-ceramide and 0 to 500 μM PPMP or AD2646. Cells were then lysed by freezing and thawing of the culture. Lipids were extracted by a modification of the method of Bligh and Dyer. To each sample, three volumes of a CH3OH/CHCl3 mixture (1:2, v:v) were added and the mixture vortexed for one min. Organic and aqueous phases were separated by centrifugation (12,000 × g, five min) and the organic phase was dried. Lipids were dissolved in 15 μl ethanol and analysed by thin layer chromatography on HPTLC plates (Silica gel 60 F254, Merck, Darmstadt, Germany) in CH3OH/[…]/NH4OH (75:25:4, v:v:v). For qualitative analyses, the fluorescent lipids were detected under UV and for quantitative analyses, the fluorescent lipid spots were scraped, eluted in one ml methanol and quantified at an excitation of 470 nm and an emission of 530 nm in a spectrofluorometer. The percentage of SPM synthase activity for each drug concentration was determined by comparison of the fluorescence quantified in the analog-treated culture with that in the control culture (without drug).
# [6] = test system: chloroquine-resistant strain FcB1 of P. falciparum; assay: Anti-Plasmodium activity, [3H]hypoxanthine microdilution on asynchronous cultures; format: cell-based, Plasmodium falciparum; conditions: Plasmodium falciparum; strain FcB1, asynchronous cultures, n = 3; read-out: IC50
# Procedure: P. falciparum strains (FcB1/Colombia, K1/Thailand, F32/Tanzania, W2/Indochina) were maintained in continuous culture on human erythrocytes in RPMI medium containing 7% (v/v) heat-inactivated human serum under an atmosphere of 3% CO2, 6% O2, 91% N2, at 37°C, as described by Trager and Jensen. Parasite synchronization was performed successively by treatment with 5% (w/v) sorbitol and by concentration in gelatin solution as previously described.
# Drug susceptibility assays were performed using a modification of the semi automated microdilution technique of Desjardins et al.. Stock solutions of test compounds were prepared in DMSO. Drug solutions were serially diluted twofold with 100 μl culture medium in 96-well plates. Asynchronous parasite cultures (100 μl, 1 % parasitemia and 1 % final hematocrite) were added to each well and incubated for 24 hours at 37°C prior to the addition of 0.5 μCi of [^3H] hypoxanthine (Amersham, France, 1 to 5 Ci.mmol/ml) per well. After a further incubation of 24 hour, plates were frozen and thawed. Cell lysates were then collected onto glass-filter papers and counted in a liquid scintillation spectrometer. The growth inhibition for each drug concentration was determined by comparison of the radioactivity incorporated in the treated culture with that in the control culture (having the same final % of DMSO) maintained on the same plate. The concentration causing 50% growth inhibition (IC50) and 90% growth (IC90) were obtained from the drug concentration-response curve and the results were expressed as the means ± the standard deviations determined from several independent experiments.
compound,measurement,setting,value
"CCCCCCCCCCCCCCCC(=O)NC(CN1CCOCC1)C(O)c1ccccc1 (stereo not drawn) [PPMP, d,1-threo-1-phenyl-2-palmitoylamino-3-morpholino-1-propanol, reference compound]",TVN formation,[1]; rings incubated 24 hours with 60 nM AD2646 or 5 μM PPMP,no TVN was observed
same,ring development,"[1]; rings, 24 hours, 5 μM",totally inhibited
same,reversibility of ring-stage block,[2],recovered to a normal growth after drug removal
same,induced anion channel activity,[3],did not modulate significantly the induced channel activity
same,IC50,P. falciparum,0.85 µM
same,IC50,human MRC-5 cells,7.5 µM
same,IC90 at 5 days,[4],12.4 µM
same,inhibition of SPM synthase activity (shape of curve),[5],biphasic inhibition curve
same,IC50,[6],9 ± 1.7 µM

# — PMC539285, “Anti-Plasmodium activity of ceramide analogs” (Malaria Journal, 2004)
